Assay results from paper PMC9232612, “A phase 1b randomised controlled trial of a glucagon-like peptide-1 and glucagon receptor dual agonist IBI362 (LY3305677) in Chinese patients with type 2 diabetes” (Nature Communications, 2022).

Legend:
[1] = Physical and chemical characteristics of drug substance (solubility, PI); type: physicochemical
Text: (§1) IBI362 Innovent Biologics (Suzhou) Co., Ltd. CIBI362A101
IBI362 or placebo, the patient, the investigator, and all personnel involved in the clinical evaluation will be blinded to the treatment from the randomization to database locked, […]
Different drug numbers corresponded to random numbers after randomization in the IWRS, and the unblinding information remained unknown to patients and investigators throughout the trial. The randomization table will be kept by a designated […]
The study drug and placebo will be packaged, labeled, administered at the same time, and will have the appearance, taste, and smell exactly the same to hide the real situation of the treatment drug.
If necessary for the safety of the subject, emergency unblinding must be performed […]
If a patient is randomized to receive active control, the patient will not be blinded.
Sponsor will not be blinded during this study.
5.2.1 Physical and Chemical Characteristics of Drug Substance
Molecular weight: 4560.32 Dalton
Description: White to off-white powder
Solubility: Vehicle: 20 mM Tris buffer pH 8.0 and
Solubility: Not less than 10 mg/mL at
Solubility Description: Sparingly or
5.2.2 Study Drug Strength and Manufacturer
IBI362 is formulated as IBI362 for injection in a strength of 2 mg per vial and […]
The strength of the formulation used in this study is 2 mg/vial; Manufacturer: […]

[2] = Immunogenicity: anti-IBI362 antibody (ADA) and neutralizing antibody; type: in vivo, human
Text: Standard non-compartmental pharmacokinetics methods were used to analyze IBI362 plasma concentration data using Pkanalix 2020R1 (Lixoft, Antony, France). Secondary efficacy outcomes included change from baseline to week 12 in HbA1c, fasting plasma glucose (FPG), fasting insulin levels, change from baseline to week 12 in post-mixed-meal tolerance test (post-MTT) glucose, insulin, C peptide, GLP-1 and OXM levels, as well as seven-point self-measured blood glucose (SMBG) profile.
Safety analyses were done in the safety population (defined as all patients who received at least one dose of the study treatment). Pharmacokinetic analyses were done in the pharmacokinetic population (defined as all patients who received at least one dose of IBI362 and had at least one valid plasma concentration assessment). Efficacy analyses were done in the efficacy population (defined as all patients who received at least one dose of the study treatment and had baseline and at least one post-baseline HbA1c assessment). Immunogenicity analyses were done in the immunogenicity population (defined as all patients who received at least one dose of the study treatment and had at least one post-baseline ADA result).
as §1
[…] Within 1 hour before D57 administration in Week 9; […]

[3] = test system: human GLP-1 receptors; conditions: in vitro; cited from earlier work
Text: (§2) IBI362 (also known as LY3305677) is a once-weekly synthetic peptide analogue of mammalian OXM, with a fatty-acyl moiety to extend the half-life[13].

[4] = test system: mouse glucagon receptors; conditions: in vitro; cited from earlier work
Text: as §2

[5] = test system: mice; conditions: cited from earlier work
Text: as §2

[6] = test system: mouse GLP-1 receptors; conditions: in vitro; cited from earlier work
Text: as §2

[7] = test system: human glucagon receptors; conditions: in vitro; cited from earlier work
Text: as §2

PI ([1]; drug substance): 5.2
Solubility ([1]; vehicle 20 mM Tris buffer pH 8.0 and 150 mM sodium chloride, 25℃): Not less than 10 mg/mL
patients who developed anti-IBI362 antibody ([2]; all IBI362 cohorts, n=24 (four patients)): 16.7%
neutralizing antibodies ([2]; post-baseline samples): No neutralizing antibodies were detected
SMILES: CC(C)C[C@H](NC(=O)[C@H](CC(C)C)NC(=O)[C@H](Cc1c[nH]c2ccccc12)NC(=O)[C@H](CCC(=O)O)NC(=O)[C@@H](NC(=O)[C@H](Cc1ccccc1)NC(=O)[C@H](CCC(=O)O)NC(=O)[C@H](CCCCNC(=O)COCCOCCNC(=O)COCCOCCNC(=O)CC[C@H](NC(=O)CCCCCCCCCCCCCCCCCCC(=O)O)C(=O)O)NC(=O)[C@H](C)NC(=O)[C@H](CCCCN)NC(=O)[C@H](CCCCN)NC(=O)[C@H](CCC(=O)O)NC(=O)[C@H](CC(=O)O)NC(=O)[C@H](CC(C)C)NC(=O)[C@H](Cc1ccc(O)cc1)NC(=O)[C@H](CCCCN)NC(=O)[C@H](CO)NC(=O)[C@H](Cc1ccc(O)cc1)NC(=O)[C@H](CC(=O)O)NC(=O)[C@H](CO)NC(=O)[C@@H](NC(=O)[C@H](Cc1ccccc1)NC(=O)[C@@H](NC(=O)CNC(=O)[C@H](CCC(N)=O)NC(=O)C(C)(C)NC(=O)[C@@H](N)Cc1c[nH]cn1)[C@@H](C)O)[C@@H](C)O)C(C)C)C(=O)N[C@@H](CCC(=O)O)C(=O)NCC(=O)NCC(=O)N1CCC[C@H]1C(=O)N[C@@H](CO)C(=O)N[C@@H](CO)C(=O)NCC(N)=O [IBI362]
binding [3]: potently bound
binding [4]: potently bound
body weight ([5]; both Gcgr KO and Glp1r KO settings): decreased body weight
energy expenditure ([5]; mice): increased energy expenditure
glucose control ([5]; mice): improved glucose control
binding [6]: potently bound
binding [7]: potently bound
